Test results reported in ChEMBL document CHEMBL4680302, “Biologic-like In Vivo Efficacy with Small Molecule Inhibitors of TNFα Identified Using Scaffold Hopping and Structure-Based Drug Design Approaches” (J Med Chem, 2020).

What was measured:
[1] = target: Tumor necrosis factor (Homo sapiens, UniProt P01375); assay: Inhibition of exogenous human TNFalpha in HEK-Blue-CD40L cells assessed as reduction in TNF-alpha-induced NFkappaB activation incubated for 18 hrs by quanti-blue based SEAP assay; assay type: cell-based
[2] = Metabolic stability in human liver microsomes assessed as parent compound remaining after 10 mins; assay type: ADME, Microsome; details: read-out: Stabilty
[3] = target: Cytochrome P450 2C9 (Homo sapiens, UniProt P11712); assay: Inhibition of recombinant CYP2C9 (unknown origin); assay type: ADME
[4] = Metabolic stability in human liver microsomes assessed as half-life; assay type: ADME, Microsome
[5] = target: T1, Cytochrome P450 1A2 (Homo sapiens, UniProt P05177); assay: Inhibition of recombinant CYP1A2 (unknown origin); assay type: ADME
T1 sequence (P05177 whole entry): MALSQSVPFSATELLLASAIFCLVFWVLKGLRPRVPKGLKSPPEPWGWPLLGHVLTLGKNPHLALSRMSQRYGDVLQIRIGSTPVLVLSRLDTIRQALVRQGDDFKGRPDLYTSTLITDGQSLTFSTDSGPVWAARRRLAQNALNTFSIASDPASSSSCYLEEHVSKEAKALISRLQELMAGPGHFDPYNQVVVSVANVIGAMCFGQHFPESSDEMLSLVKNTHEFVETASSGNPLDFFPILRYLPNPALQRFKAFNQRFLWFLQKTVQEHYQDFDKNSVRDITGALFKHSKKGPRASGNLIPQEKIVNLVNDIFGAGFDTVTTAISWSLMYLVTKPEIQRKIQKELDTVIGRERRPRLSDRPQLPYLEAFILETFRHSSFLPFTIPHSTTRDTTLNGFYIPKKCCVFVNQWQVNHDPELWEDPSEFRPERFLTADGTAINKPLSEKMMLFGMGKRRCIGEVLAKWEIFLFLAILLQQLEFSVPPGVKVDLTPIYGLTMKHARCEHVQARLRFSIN

[6] = Protein binding in human assessed as unbound fraction; assay type: ADME
[7] = Protein binding in rat assessed as unbound fraction; assay type: ADME
[8] = Clearance in mouse at 0.5 mg/kg, iv; assay type: ADME, organism-based; details: in vivo
[9] = Volume of distribution at steady state in mouse at 0.5 mg/kg, iv; assay type: ADME, organism-based; details: in vivo, read-out: Vdss
[10] = tested on: Mus musculus; assay: Antiarthritic activity against anticollagen antibody-induced arthritis BALB/c mouse model assessed as reduction in paw inflammation administered orally twice a day followed by LPS stimulation after 6 hrs measured until day 12; assay type: functional, organism-based; details: dose 2-10 mg/kg, time 12.0 day
[11] = tested on: Mus musculus; assay: Antiarthritic activity against anticollagen antibody-induced arthritis BALB/c mouse model assessed as reduction in LPS-induced IL-1beta production administered orally twice daily followed by LPS stimulation after 6 hrs measured on day 12 by RT-PCR analysis; assay type: functional, organism-based; details: dose 2-10 mg/kg, time 12.0 day
[12] = tested on: Mus musculus; assay: Antiarthritic activity against anticollagen antibody-induced arthritis BALB/c mouse model assessed as reduction in LPS-induced TNFalpha production administered orally twice daily followed by LPS stimulation after 6 hrs measured on day 12 by RT-PCR analysis; assay type: functional, organism-based; details: dose 2-10 mg/kg, time 12.0 day
[13] = tested on: Mus musculus; assay: Antiarthritic activity against anticollagen antibody-induced arthritis BALB/c mouse model assessed as reduction in LPS-induced CXCL10 levels administered orally twice daily followed by LPS stimulation after 6 hrs measured on day 12 by RT-PCR analysis; assay type: functional, organism-based; details: dose 2-10 mg/kg, time 12.0 day
[14] = tested on: Mus musculus; assay: Antiarthritic activity against anticollagen antibody-induced arthritis BALB/c mouse model assessed as reduction in LPS-induced IL-17a production administered orally twice daily followed by LPS stimulation after 6 hrs measured on day 12 by RT-PCR analysis; assay type: functional, organism-based; details: dose 2-10 mg/kg, time 12.0 day
[15] = tested on: Mus musculus; assay: Antiarthritic activity against anticollagen antibody-induced arthritis BALB/c mouse model assessed as reduction in LPS-induced cells expressing CD3 receptor administered orally twice daily followed by LPS stimulation after 6 hrs measured on day 12 by RT-PCR analysis; assay type: functional, organism-based; details: dose 2-10 mg/kg, time 12.0 day
[16] = Terminal drug exposure in anticollagen antibody-induced arthritis BALB/c mouse model at 10 mg/kg, po BID followed by LPS stimulation after 6 hrs measured on day 12; assay type: ADME, organism-based; details: in vivo, time 12 day, read-out: Drug uptake
[17] = Selectivity ratio of drug exposure in anticollagen antibody-induced arthritis BALB/c mouse model at 10 mg/kg, po BID for 12 days to IC50 for inhibition of human TNFalpha expressed in HEK-Blue-CD40L cells assessed as inhibition of NFkappaB activation by quanti-blue based SEAP assay
[18] = target: T2, Tumor necrosis factor ligand superfamily member 6 (Homo sapiens, UniProt P48023); assay: Inhibition of FasL (unknown origin)
T2 sequence (P48023 whole entry): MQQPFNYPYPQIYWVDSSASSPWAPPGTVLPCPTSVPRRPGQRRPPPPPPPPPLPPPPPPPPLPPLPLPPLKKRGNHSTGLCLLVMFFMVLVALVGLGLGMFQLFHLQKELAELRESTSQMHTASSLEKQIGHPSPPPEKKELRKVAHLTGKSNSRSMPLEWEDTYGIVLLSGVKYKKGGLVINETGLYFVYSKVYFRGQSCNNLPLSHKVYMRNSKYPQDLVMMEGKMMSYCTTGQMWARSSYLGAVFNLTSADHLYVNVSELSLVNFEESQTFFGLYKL

[19] = target: T3, Lymphotoxin-beta (Homo sapiens, UniProt Q06643); assay: Inhibition of LTbeta (unknown origin)
T3 sequence (Q06643 whole entry): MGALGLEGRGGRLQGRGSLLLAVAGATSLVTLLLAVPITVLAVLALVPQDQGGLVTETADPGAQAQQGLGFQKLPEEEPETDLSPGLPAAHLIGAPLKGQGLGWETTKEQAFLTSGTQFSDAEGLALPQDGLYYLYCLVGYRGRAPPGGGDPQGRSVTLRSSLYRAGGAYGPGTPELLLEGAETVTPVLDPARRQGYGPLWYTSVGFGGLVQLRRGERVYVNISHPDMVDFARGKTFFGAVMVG

[20] = target: T4, Tumor necrosis factor receptor superfamily member 1A (Homo sapiens) (UniProt P19438); assay: Binding affinity to TNFR1 (unknown origin) assessed as apparent molecular weight of protein at 25 uM in presence of human TNFalpha by ultracentrifugation analysis (reference value: 27 kDa)
T4 sequence (whole entry): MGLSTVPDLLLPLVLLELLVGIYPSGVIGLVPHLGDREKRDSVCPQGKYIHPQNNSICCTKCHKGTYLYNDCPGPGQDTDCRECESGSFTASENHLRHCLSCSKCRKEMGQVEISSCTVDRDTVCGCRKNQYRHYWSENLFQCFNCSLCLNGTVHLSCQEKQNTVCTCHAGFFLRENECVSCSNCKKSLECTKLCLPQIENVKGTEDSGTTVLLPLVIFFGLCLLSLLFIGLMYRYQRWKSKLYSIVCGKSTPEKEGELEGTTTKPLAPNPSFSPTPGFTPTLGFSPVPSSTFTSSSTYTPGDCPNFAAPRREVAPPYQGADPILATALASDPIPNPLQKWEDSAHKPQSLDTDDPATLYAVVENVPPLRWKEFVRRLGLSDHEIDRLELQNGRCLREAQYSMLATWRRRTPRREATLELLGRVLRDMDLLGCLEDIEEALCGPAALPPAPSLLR

Sequence of Cytochrome P450 2C9 (P11712 whole entry): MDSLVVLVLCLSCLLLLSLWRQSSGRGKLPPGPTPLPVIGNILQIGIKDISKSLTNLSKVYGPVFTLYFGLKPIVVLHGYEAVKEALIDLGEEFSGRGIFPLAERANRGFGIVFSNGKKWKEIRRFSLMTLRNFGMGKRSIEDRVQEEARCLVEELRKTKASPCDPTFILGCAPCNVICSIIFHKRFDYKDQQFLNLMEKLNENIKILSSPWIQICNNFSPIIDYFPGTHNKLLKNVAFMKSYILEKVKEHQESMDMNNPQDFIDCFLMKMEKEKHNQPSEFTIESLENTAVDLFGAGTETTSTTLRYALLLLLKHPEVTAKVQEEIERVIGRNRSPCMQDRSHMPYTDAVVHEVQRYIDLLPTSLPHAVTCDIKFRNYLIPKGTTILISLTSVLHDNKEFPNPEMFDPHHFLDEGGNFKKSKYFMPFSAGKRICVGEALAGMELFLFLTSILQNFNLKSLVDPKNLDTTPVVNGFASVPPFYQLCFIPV
Sequence of Tumor necrosis factor (P01375 whole entry): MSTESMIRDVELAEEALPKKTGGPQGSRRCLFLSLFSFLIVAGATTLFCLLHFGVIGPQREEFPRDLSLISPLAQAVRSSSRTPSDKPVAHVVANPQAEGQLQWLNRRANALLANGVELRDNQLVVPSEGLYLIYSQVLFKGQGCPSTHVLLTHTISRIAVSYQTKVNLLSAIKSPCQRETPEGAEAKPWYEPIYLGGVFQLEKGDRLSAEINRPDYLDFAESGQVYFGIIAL

remaining at 10 min [2]: 95%
IC50 [3]: 2 µM
half-life [4]: > 2 h
IC50 [5]: > 20 µM
Fu [6]: 0.35%
Fu [7]: 0.4%
clearance [8]: 6.6 mL/min/kg
Vd [9]: 3.2 L/kg
concentration at 288 h [16]: 1130 nM
SMILES: Cc1nc2cc(F)c(-c3cnc(C(C)(C)O)nc3)nc2c(N[C@H](C)c2cc(C#N)ccc2F)c1Cl
IC50 [1]: 0.027 µM
Activity [10]: Dose-dependent effect
Activity [11]: Dose-dependent effect
Activity [12]: Dose-dependent effect
Activity [13]: Dose-dependent effect
Activity [14]: Dose-dependent effect
Activity [15]: Dose-dependent effect
Selectivity ratio [17]: 4.4
IC50 [18]: > 10 µM
IC50 [19]: > 10 µM
Activity [20]: 28 kDa
